# Earlier results in patent publication US20020160947A1, “Synergistic method for prolonging allograft survival” (Millennium Pharmaceuticals, Inc., priority 2001, published 2002).
# Test system: activated T-cells
# Details: activated versus resting T cells
compound,measurement,value
CC(=O)N[C@@H](CSC(=O)[C@]1([C@@H](O)C(C)C)NC(=O)[C@H](C)[C@@H]1O)C(=O)O [lactacystin],induction of apoptosis of T cells,"induction of apoptosis of activated T-cells, but not resting T cells"
